Assay results as given in paper PMC11111408, “Concurrent inhibition of oncogenic and wild-type RAS-GTP for cancer therapy” (Nature, 2024).
Like-named read-outs stand apart in the source and are kept apart here.

Tested on: panel of 183 cancer cell lines
Assay: Cell panel of 183 cancer cell lines, viability (CTG) at Crown Bioscience
Type: cell-based
Conditions: Homo sapiens
Excerpt: The panel consisted of cell lines with any substitution at position 12 of KRAS, NRAS or HRAS (KRAS(G12X), NRAS(G12X), HRAS(G12X)); substitutions in KRAS, NRAS or HRAS at any position other than 12, 13 and 61 (KRAS(other/VUS), NRAS(other/VUS), HRAS(other/VUS)); other oncogenic mutations in the RAS pathway (ABL1, ALK, ARAF, BRAF, CBL, EGFR, ERBB2, ERBB3, ERBB4, ERRFI1, FGFR1, FGFR2, FGFR3, FGFR4, FLT3, HRAS, IGF1R, JAK2, KIT, MAP2K1, MAP2K2, MAPK1, MET, NF1, NRAS, NTRK1, NTRK2, NTRK3, PDGFRA, PTPN11, RAC1, RAF1, RASA1, RET, RIT1, ROS1 and SOS1); and no oncogenic mutations in the RAS pathway. […] Cells were incubated for 120 h, and cell viability was determined using the CellTiter-Glo Luminescent Cell Viability Assay (CTG) (Promega, G7572) according to the manufacturer’s instructions.

CCn1c(-c2cc(N3CCN(C4CC4)CC3)cnc2[C@H](C)OC)c2c3cc(ccc31)-c1csc(n1)C[C@H](NC(=O)[C@H]1[C@@H]3COC[C@@H]31)C(=O)N1CCC[C@H](N1)C(=O)OCC(C)(C)C2 [RMC-7977]
EC50 (OVCAR-5, read-out: RMC-7977 EC50 (M), OVCAR5, KRAS G12V, Ovary): 1.02e-09 M
EC50 (OVCAR-8, read-out: RMC-7977 EC50 (M), OVCAR8, KRAS P121H, Ovary): > 1e-06 M
EC50 (PANC-1, read-out: RMC-7977 EC50 (M), PANC1, KRAS G12D, Pancreas): 1.66e-09 M
EC50 (PANC-03-27, read-out: RMC-7977 EC50 (M), PANC0327, KRAS G12V, Pancreas): 3.39e-10 M
EC50 (PL45, read-out: RMC-7977 EC50 (M), PL45, KRAS G12D, Pancreas): 3.31e-08 M
EC50 (PSN1, read-out: RMC-7977 EC50 (M), PSN1, KRAS G12R, Pancreas): 3.24e-09 M
EC50 (PTPN11^MUT cell lines, read-out: median EC50): 7.95e-09 M
EC50 (Panc 05.04, read-out: RMC-7977 EC50 (M), PANC0504, KRAS G12D, Pancreas): 1.62e-09 M
EC50 (Panc1005, read-out: RMC-7977 EC50 (M), PANC1005, KRAS G12D, Pancreas): 2.34e-09 M
EC50 (RAS pathway wild-type (WT) cell lines, read-out: median EC50): 7.15e-08 M
EC50 (RL95-2, read-out: RMC-7977 EC50 (M), RL952, HRAS Q61H, Uterus): 4.57e-09 M
EC50 (RT112/84, read-out: RMC-7977 EC50 (M), RT11284, FGFR fusion, Bladder): 4.87e-09 M
EC50 (SCC-9, read-out: RMC-7977 EC50 (M), SCC9, HRAS L133R, HN/Tongue): 1.23e-08 M
EC50 (SHP77, read-out: RMC-7977 EC50 (M), SHP77, KRAS G12V, Lung): > 1e-06 M
EC50 (SK-BR-3, read-out: RMC-7977 EC50 (M), SKBR3, MET amp, Breast): > 1e-06 M
EC50 (SK-CO-1, read-out: RMC-7977 EC50 (M), SKCO1, KRAS G12V, Large intestine/Colorectum): 1.05e-09 M
EC50 (SK-LMS-1, read-out: RMC-7977 EC50 (M), SKLMS1, NF1 LOF, Vulva): 6.33e-09 M
EC50 (SK-LU-1, read-out: RMC-7977 EC50 (M), SKLU1, KRAS G12D, Lung): > 1e-06 M
EC50 (SK-MEL-2, read-out: RMC-7977 EC50 (M), SKMEL2, NRAS Q61R, Skin): 9.12e-09 M
EC50 (SK-N-AS, read-out: RMC-7977 EC50 (M), SKNAS, NRAS Q61K, Brain&Nerves): 1.91e-09 M
EC50 (SK-N-FI, read-out: RMC-7977 EC50 (M), SKNFI, RAS pathway WT, Brain&Nerves): 3.82e-08 M
EC50 (SK-N-SH, read-out: RMC-7977 EC50 (M), SKNSH, NRAS Q61K, Brain&Nerves): 2.4e-07 M
EC50 (SK-OV-3, read-out: RMC-7977 EC50 (M), SKOV3, RAS pathway WT, Ovary): 5.38e-08 M
EC50 (SNU1, read-out: RMC-7977 EC50 (M), SNU1, KRAS G12D, Stomach): 7.76e-09 M
EC50 (SNU668, read-out: RMC-7977 EC50 (M), SNU668, KRAS Q61K, Stomach): 4.57e-09 M
EC50 (SNU-5, read-out: RMC-7977 EC50 (M), SNU5, MET amp, Stomach): 3.86e-09 M
EC50 (SNU-387, read-out: RMC-7977 EC50 (M), SNU387, NRAS Q61K, Liver): 5.01e-09 M
EC50 (SNU-398, read-out: RMC-7977 EC50 (M), SNU398, RAS pathway WT, Liver): > 1e-06 M
EC50 (SNU-601, read-out: RMC-7977 EC50 (M), SNU601, KRAS G12D, Stomach): 3.09e-09 M
EC50 (SU-DHL-1, read-out: RMC-7977 EC50 (M), SUDHL1, ALK fusion, Blood/lymphoma): 7.61e-08 M
EC50 (SU.86.86, read-out: RMC-7977 EC50 (M), SU8686, KRAS G12D, Pancreas): 2.45e-09 M
EC50 (SUM-159-PT, read-out: RMC-7977 EC50 (M), SUM159PT, HRAS G12D, Breast): 2.45e-09 M
EC50 (SW48, read-out: RMC-7977 EC50 (M), SW48, HRAS G161R, Large intestine/Colorectum): > 1e-06 M
EC50 (SW480, read-out: RMC-7977 EC50 (M), SW480, KRAS G12V, Large intestine/Colorectum): 2.57e-09 M
EC50 (SW626, read-out: RMC-7977 EC50 (M), SW626, KRAS G12V, Ovary): 1.82e-09 M
EC50 (SW684, read-out: RMC-7977 EC50 (M), SW684, NF1 LOF, Soft tissue): 3.68e-08 M
EC50 (SW756, read-out: RMC-7977 EC50 (M), SW756, KRAS G12C, Ovary): 1.17e-08 M
EC50 (SW780, read-out: RMC-7977 EC50 (M), SW780, FGFR fusion, Bladder): 5e-09 M
EC50 (SW837, read-out: RMC-7977 EC50 (M), SW837, KRAS G12C, Large intestine/Colorectum): 1.7e-09 M
EC50 (SW900, read-out: RMC-7977 EC50 (M), SW900, KRAS G12V, Lung): 4.07e-09 M
EC50 (SW948, read-out: RMC-7977 EC50 (M), SW948, KRAS Q61L, Large intestine/Colorectum): 1.45e-08 M
EC50 (SW 1116, read-out: RMC-7977 EC50 (M), SW1116, KRAS G12A, Large intestine/Colorectum): 1.82e-08 M
EC50 (SW1271, read-out: RMC-7977 EC50 (M), SW1271, NRAS Q61R, Lung): 2.19e-09 M
EC50 (SW1463, read-out: RMC-7977 EC50 (M), SW1463, KRAS G12C, Large intestine/Colorectum): 7.59e-09 M
EC50 (SW1573, read-out: RMC-7977 EC50 (M), SW1573, KRAS G12C, Lung): > 1e-06 M
EC50 (SW1783, read-out: RMC-7977 EC50 (M), SW1783, RAS pathway WT, Brain&Nerves): 4.53e-08 M
EC50 (SW1990, read-out: RMC-7977 EC50 (M), SW1990, KRAS G12D, Pancreas): 1.02e-09 M
EC50 (SW-403, read-out: RMC-7977 EC50 (M), SW403, KRAS G12V, Large intestine/Colorectum): 1.15e-09 M
EC50 (SW-620, read-out: RMC-7977 EC50 (M), SW620, KRAS G12V, Large intestine/Colorectum): 9.55e-10 M
EC50 (TOV21G, read-out: RMC-7977 EC50 (M), TOV21G, KRAS G13C, Ovary): 1.41e-08 M
EC50 (U-87 MG, read-out: RMC-7977 EC50 (M), U87MG, NF1 LOF, Brain&Nerves): 2.81e-08 M
EC50 (U-118-MG, read-out: RMC-7977 EC50 (M), U118MG, ROS1 fusion, GBM): 5.95e-08 M
EC50 (UMUC3, read-out: RMC-7977 EC50 (M), UMUC3, KRAS G12C, Bladder): 4.17e-10 M
EC50 (cell lines with NF1 loss of function and PTPN11 mutations, read-out: median EC50): 2.81e-08 M
EC50 (cell lines with mutationally activated RTKs (RTK^MUT/fusion), read-out: median EC50): 6.14e-09 M
EC50 (cell lines with wild-type MET gene amplification (MET^AMP), read-out: median EC50): 6.61e-09 M
EC50 (non-G12 mutant KRAS cell lines, read-out: median EC50): 2.51e-08 M
EC50 (read-out: RMC-7977 EC50 (M), AGS, KRAS G12D, Lung): 1.15e-09 M
EC50 (read-out: RMC-7977 EC50 (M), ASH3, NRAS Q61R, HN/Thyroid): 9.77e-09 M
EC50 (read-out: RMC-7977 EC50 (M), HCC2279, EGFR mut, Lung): 4.52e-09 M
